How the values were obtained:
[1] = NOSTRA phase III trial: exposure control (pharmacokinetics), samples after end of infusion and 12 hours after end of infusion; assay type: in vivo, human; conditions: exposure control samples; no utilizable values for parent
Experimental: An exposure control was performed with samples collected after end of infusion and 12 hours after end of infusion. Due to the high sensibility of Ronopterin to oxidation, no utilizable values could be obtained for Ronopterin and, therefore, the first metabolite, 4-amino-dihydrobiopterin, was used as a surrogate. The mean absolute concentration for the first metabolite of Ronopterin was 1071 ng/mL at the end of the infusion and 476 ng/mL 12 hours later (56% elimination). The mean absolute value for the second Ronopterin metabolite was 52 ng/mL at the end of the infusion and 37 ng/mL 12 hours after end of infusion.

[2] = system: Moderate and Severe Traumatic Brain Injury; conditions: cited from earlier work
[3] = NOSTRA phase III trial: safety and adverse event analyses; assay type: in vivo
Experimental: Safety analyses was performed using standard descriptive methods.
The total number of treatment-emergent adverse events (TEAE) and the total number of patients with TEAEs, the total number of TEAEs related to the study drug (certain, probable, possible), the total number of patients with TEAEs related to the study drug, the total number of TEAEs and the total number of patients with serious TEAEs, the total number of patients with TEAEs leading to discontinuation of study treatment and the total number of patients with TEAEs leading to death were summarised by treatment arm.

[4] = may be due to over-reporting of some centres

SMILES: CC(O)C(O)C1CNc2nc(N)nc(N)c2N1 [Ronopterin, 4-Amino-(6R,S)-5,6,7,8-tetrahydro-L-biopterin]
- sensibility to oxidation [1]: high
- effect of infusion during the initial 12 hours after TBI ([2]; Phase IIa trial [Stover]): benefits
- effect in phase II clinical trial ([2]; Stover et al. 2014 (NOSTRA phase IIa)): beneficial
- number of renal AEs ([3]; Ronopterin:placebo 11:3): 11
- tolerability of study treatment ([3]; TBI patients, 17 mg/kg over 48 hours): well-tolerated
- number of related AE/SAEs ([3]; between the groups (Ronopterin, placebo)): low and comparable
- number of adverse events (AEs) and serious adverse events (SAEs) compared to placebo ([3]; in vivo): slightly higher
- ICP increased, number of patients [3, 4]: 27 patients
- ICP increased, proportion of patients [3, 4]: 23.9%

— US12171766B2, “Methods of treating patients suffering from brain injury and methods of increasing the value of the extended Glasgow Outcome Scale of patients suffering from brain injury” (VERINOS OPERATIONS GMBH, priority 2021, dated 2024)
